Like-named read-outs stand apart in the source and are kept apart here.
Key:
[1] = tested on: Nqo1 (NAD(P)H quinone dehydrogenase 1) mRNA, Nrf2 downstream molecule; assay: In vivo Nrf2 transcriptional activity measurement (Nqo1 mRNA in organs by qPCR); settings: Mus musculus, C57BL/6J mice, 7 to 8 hours; for fold induction at 10 mg/kg / fold induction at 15 mg/kg: ip, Intraperitoneal; for fold induction at 30 mg/kg: Oral
Experimental: Test Example 2: In Vivo Nrf2 Transcriptional Activity Measurement
A test compound (solvent: 10 vol % dimethyl sulfoxide/50 mM glycine/32 mM sodium hydroxide/physiological saline) was administered to C57BL/6J mice (7-8 weeks old), which were euthanized by whole blood collection under isoflurane anesthesia 7 to 8 hours later, followed by the collection of various organs. mRNA was purified from the collected organs, and the mRNA expression level of Mapk1 as an internal control and the mRNA expression level of Nqo1 (NAD(P)H quinone dehydrogenase 1) as a typical Nrf2 downstream molecule were each measured by qPCR. The Nqo1 mRNA expression level was quantified by comparative CT, and an expression level ratio to a non-administration group was calculated. The administration of the test compound elevated the Nqo1 mRNA expression level in the various organs, confirming that the test compound also has a Nrf2-activating effect in vivo.

[2] = tested on: Nrf2 transcriptional activity (pARE-Luc reporter) in HepG2 cells; assay: In vitro Nrf2 transcriptional activity measurement by ARE-dependent reporter assay in HepG2 cell; type: cell-based, human
In short: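 Luminescence readout (Bright-Glo) after 4 h, 37° C compound exposure of HepG2 cells carrying the ARE-luciferase vector pGL4.37. Each well converted to % response versus reference compound at 3.75 μM, and EC50 derived from dose-response curves.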

[3] = kidney, read-out: Nqo1 mRNA expression level ratio to non-administration group, Kidney
[4] = liver, read-out: Nqo1 mRNA expression level ratio to non-administration group, Liver
[5] = lung, read-out: Nqo1 mRNA expression level ratio to non-administration group, Lung
[6] = Homo sapiens, HepG2 cells transfected with pARE-Luc, 4 hours at 37° C., luciferase activity of Example 1-54 or Example 17-23 at 3.75 μM defined as 100%

| Structure (SMILES) | fold induction at 10 mg/kg [1, 3] | fold induction at 10 mg/kg [1, 4] | fold induction at 10 mg/kg [1, 5] | fold induction at 30 mg/kg [1, 3] | fold induction at 30 mg/kg [1, 4] | fold induction at 30 mg/kg [1, 5] | EC50 [2, 6] | EC50 ([2]; HepG2 cells, pARE-Luc reporter, 4 hours, 100% = Example 1-54 or Example 17-23 at 3.75 μM (repeat print of Table 20-1)) | fold induction at 15 mg/kg [1, 3] | fold induction at 15 mg/kg [1, 4] | fold induction at 15 mg/kg [1, 5] |
| --- | --- | --- | --- | --- | --- | --- | --- | --- | --- | --- | --- |
| CO[C@@H]1CN(c2cc(Cl)c(C(=O)N3COc4c(cccc4-c4cc(N5C6CCC5COC6)c(C(=O)O)cc4F)C3)c(Cl)c2)[C@@H]1C [Compound 1-4, 4-[3-[2,6-Dichloro-4-[(2R,3R)-3-methoxy-2-methylazetidin-1-yl]benzoyl]-2,4-dihydro-1,3-benzoxazin-8-yl]-5-fluoro-2-(3-oxa-8-azabicyclo[3.2.1]octan-8-yl)benzoic acid] | 4.4 | 6.5 | 13 | 5 | 8.1 | 20 | 1.6 nM |  |  |  |  |
| O=C(O)c1cc(F)c(-c2cccc3c2OCN(C(=O)c2c(Cl)cc(N4CC5(CCOCC5)C4)cc2Cl)C3)cc1N1C2CCC1COC2 [Compound 1-18, 4-[3-[2,6-Dichloro-4-(7-oxa-2-azaspiro[3.5]nonan-2-yl)benzoyl]-2,4-dihydro-1,3-benzoxazin-8-yl]-5-fluoro-2-(3-oxa-8-azabicyclo[3.2.1]octan-8-yl)benzoic acid] | 2.5 | 6 | 8.7 |  |  |  | 4.3 nM |  |  |  |  |
| O=C(O)c1cc(F)c(-c2cccc3c2OCN(C(=O)c2c(Cl)cc(N4CC5(CC(OC(F)F)C5)C4)cc2Cl)C3)cc1N1C2CCC1COC2 [Compound 1-21, 4-[3-[2,6-Dichloro-4-[6-(difluoromethoxy)-2-azaspiro[3.3]heptan-2-yl]benzoyl]-2,4-dihydro-1,3-benzoxazin-8-yl]-5-fluoro-2-(3-oxa-8-azabicyclo[3.2.1]octan-8-yl)benzoic acid] | 3.7 | 4.7 | 10 |  |  |  | 2.9 nM |  |  |  |  |
| C[C@@H]1CN(C)CCN1c1cc(Cl)c(C(=O)N2COc3c(cccc3-c3cc(N4C5CCC4COC5)c(C(=O)O)cc3F)C2)c(Cl)c1 [Compound 1-33, 4-[3-[2,6-Dichloro-4-[(2R)-2,4-dimethylpiperazin-1-yl]benzoyl]-2,4-dihydro-1,3-benzoxazin-8-yl]-5-fluoro-2-(3-oxa-8-azabicyclo[3.2.1]octan-8-yl)benzoic acid] | 3.7 | 5.5 | 13 | 5.1 | 5.2 | 18 |  | 1.9 nM |  |  |  |
| COCCN1CCN(c2cc(Cl)c(C(=O)N3COc4c(cccc4-c4cc(N5CCOCC5)c(C(=O)O)cc4F)C3)c(Cl)c2)CC1 [Compound 1-54, 4-[3-[2,6-Dichloro-4-[4-(2-methoxyethyl)piperazin-1-yl]benzoyl]-2,4-dihydro-1,3-benzoxazin-8-yl]-5-fluoro-2-morpholin-4-ylbenzoic acid] | 4.6 | 6.7 | 18 | 4.9 | 7.4 | 20 | 1.5 nM |  |  |  |  |
| COC1CC2(C1)CN(c1cc(Cl)c(C(=O)N3COc4c(cccc4-c4ccc(C(=O)O)c(N5C6CCC5COC6)c4)C3)c(Cl)c1)C2 [Compound 1-83, 4-[3-[2,6-Dichloro-4-(6-methoxy-2-azaspiro[3.3]heptan-2-yl)benzoyl]-2,4-dihydro-1,3-benzoxazin-8-yl]-2-(3-oxa-8-azabicyclo[3.2.1]octan-8-yl)benzoic acid] |  |  |  |  |  |  | 2.4 nM |  | 4.7 | 6.5 | 21 |
